Data published in patent US8394763B2, “Cyclic undecapeptides and derivatives as multiple sclerosis therapies” (Oregon Health & Science University, priority 2007, dated 2013).

What was measured:
[1] = molecular target: CypA (Homo sapiens, UniProt P62937); conditions: see U.S. Pat. No. 6,927,208 and WO 2006/038088; cited from earlier work
[2] = system: lymph node cells; assay: Proliferation of lymph node cells to MOG 35-55 peptide, [3H]thymidine incorporation; format: cell-based, C57BL/6 (B6) mice; conditions: 25 μg/ml MOG 35-55 peptide; equimolar concentrations of both compounds; vs MOG 35-55 peptide alone
[3] = system: Splenocytes or lymphocytes; assay: Proliferation of splenocytes or lymphocytes from treated immunized mice in response to MOG 35-55 peptide; format: in vivo, B6 mice; conditions: mice treated with 20 mg/kg/day, compared with vehicle
[4] = system: EAE in C57BL/6 (B6) female mice; assay: Clinical course of EAE, treatment begun prior to disease onset (day 10); format: in vivo, C57BL/6 (B6) mice; conditions: for mean total EAE score: vehicle control 99
Description: EAE was induced in C57BL/6 (B6) female mice by immunization with 200 μg of MOG 35-55 peptide in complete Freund's adjuvant containing 400 μg of Mycobacterium tuberculosis per mouse by subcutaneous injection. Pertussis toxin was administered intraperitoneally at day 0 (25 ng per mouse) and day 2 (66 ng per mouse) after immunization. […] Mice were examined for signs of EAE daily, blinded to treatment status. EAE was scored by using a 9 point scale (0, no paralysis; 1, limp tail with minimal hind limb weakness; 2, mild hind limb weakness; 3, moderate hind limb weakness; 4, moderately severe hind limb weakness; 5, severe hind limb weakness; 6, complete hind limb paralysis; 7, hind limb paralysis with mild forelimb weakness; 8, hind limb paralysis with moderate forelimb weakness; and 9, hind limb paralysis with severe forelimb weakness).

[5] = system: EAE in B6 mice; assay: Reversal of paralysis in EAE, treatment begun day 15 after onset; format: in vivo; conditions: 20 mg/kg daily from day 15
Text: EAE was induced in B6 mice as described in Example 2. Mice developed signs of EAE 10-12 days following immunization with MOG 35-55 peptide. […] Mice were scored daily for EAE, blinded to treatment status.

[6] = system: Mice with induced EAE; assay: White matter tissue damage in thoracic spinal cord of EAE mice (toluidine blue); format: in vivo; conditions: vs vehicle
Description: Mice with induced EAE were deeply anesthetized with isoflurane, heparinized, and perfused with 5% gluteraldehyde, and spinal cords were dissected as described in Masliah et al., Am. J. Pathol. 142:871-882, 1993. Tissue samples were post-fixed with 1% osmium. Semithin sections (0.5 μm) were stained with toluidine blue and photographed at 25× magnification. The percentage of the spinal cord showing damage was determined in the ventrolateral and dorsal thoracic cord. Photomontages (final magnification 100×) of the entire spinal cord and areas containing damaged fibers were measured using a SummaSketch 111 (Summagraphics, Fairfield, Conn.) digitizing tablet and BIOQUANT Classic 95 software (R & M Biometrics, Nashville, Tenn.). Measurements were taken of the total area (damaged and nondamaged) and the cumulative percentage area of lesions was calculated.

[7] = system: Mice with induced EAE; assay: Phosphorylated neurofilament (NF-P) immunostaining of spinal cord of EAE mice, dose groups; format: in vivo; conditions: vehicle 24%
Description: Mice with induced EAE were perfused with 4% paraformaldehyde and 1- to 2-mm lengths of spinal cord were processed for sectioning as described in Masliah et al. Spinal cord sections were blocked and stained with anti-phosphorylated NF, SMI312 (Sternberger Monoclonals, Lutherville, Md.). Following incubation in goat anti-mouse secondary antibody and incubation in mouse peroxidase-antiperoxidase, immunoreactivity was visualized with 0.05% diaminobenzidine tetrahydrochloride/0.01% hydrogen peroxide, examined by light microscopy and photographed and analyzed as described for assessing white matter tissue damage. Statistical significance was determined by using one-way ANOVA followed by Newman-Keuls multiple comparisons tests (WINKS 4.62 professional edition; Texasoft, Dallas, Tex.); significance was defined as p<0.05.

[8] = system: EAE in B6 mice; assay: Repair of injured axons: NF-P immunostaining at day 40, treatment from day 15; format: in vivo
Text: B6 mice were immunized with MOG 35-55 peptide as described in Example 2. […] The two treatment groups were perfused on day 40 post-immunization and sections of their spinal cords were immunostained for NF-P.

[9] = system: EAE in C57BL/6 mice; assay: CD4 and CD11b immunostaining of spinal cord of EAE mice; format: in vivo; conditions: 20 mg/kg/day s.c. from day 15, day 34 to 40
Text: EAE was induced in C57BL/6 mice by immunization with […] as described in Example 2. […] Mice received therapy by daily subcutaneous injection. Mice were euthanized at day 34 to 40 post-immunization by perfusion with 4% paraformaldehyde and spinal cords were removed for immunohistochemical staining and quantitative analysis. Spinal cord sections were stained with anti-CD4 (lymphocyte) or anti-CD11b (monocyte/macrophage lineage) antibodies and quantified following image capture on a laser scanning confocal microscope.

[10] = 20 mg/kg, vs vehicle treated mice

Sequence of CypA (P62937 whole entry, species assumed): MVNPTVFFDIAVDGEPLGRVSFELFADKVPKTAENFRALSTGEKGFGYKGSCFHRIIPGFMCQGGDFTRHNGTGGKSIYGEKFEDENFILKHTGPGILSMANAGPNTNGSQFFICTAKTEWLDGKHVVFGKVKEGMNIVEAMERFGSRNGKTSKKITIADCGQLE

[EtPhe(4-CH2PO(OMe)2)]^4-CsA
apparent Ki for CypA activity compared with CsA [1]: less than the Ki of CsA

Cyclo[L-alanyl-D-alanyl-N-methyl-L-leucyl-N-methyl-L-leucyl-N-methyl-L-valyl-(2S,3R,4R,6E)-3-hydroxy-4-methyl-2-methylamino-6-octenoyl-(2S)-2-aminobutanoyl-N-methyl-D-alanyl-N-ethyl-L-valyl-L-valyl-N-methyl-L-leucyl] [[D-MeAla]^3-[EtVal]^4-CsA]
proliferative capacity of lymph node cells, MOG 35-55 peptide stimulated [2]: did not significantly alter | proliferation of splenocytes or lymphocytes in response to MOG 35-55 peptide [3]: no differences in proliferation | mean total EAE score ([4]; 1 mg/kg/day from day 10): 53 | mean total EAE score ([4]; 5 mg/kg/day from day 10): 25 | onset of disease [4, 10]: significantly delayed | severity of peak disease [4, 10]: reduced | mean total EAE score ([4]; 20 mg/kg/day from day 10): 12 | recovery over the course of the experiment ([4]; all doses (1, 5, 20 mg/kg), in contrast to vehicle): completely recovered | clinical course of paralysis [5]: progressive improvement, eventually returning to nearly normal | mean total EAE score ([5]; vehicle 116, p=0.0006): 75 | reduction of tissue damage, dorsal thoracic cord ([6]; 1 mg/kg/day): 50% | reduction of tissue damage, ventrolateral thoracic cord ([6]; 1 mg/kg/day): 40% | reduction of tissue damage, dorsal thoracic cord ([6]; 5 mg/kg/day): 69% | reduction of tissue damage, ventrolateral thoracic cord ([6]; 5 mg/kg/day): 76% | reduction of tissue damage, dorsal thoracic cord ([6]; 20 mg/kg/day): 81% | reduction of tissue damage, ventrolateral thoracic cord ([6]; 20 mg/kg/day): 86% | mean area of loss of NF-P staining, lateral/ventral thoracic spinal cord ([7]; 1 mg/kg): 14.5% | mean area of loss of NF-P staining, lateral/ventral thoracic spinal cord ([7]; 5 mg/kg): 3% | mean area of loss of NF-P staining, lateral/ventral thoracic spinal cord ([7]; 20 mg/kg): 1.5% | reduced NF-P staining, share of dorsal spinal cord ([8]; 20 mg/kg daily from day 15, read at day 40, day 15 untreated 9%, vehicle 4.7%): 1.7% | reduced NF-P staining, share of ventrolateral spinal cord ([8]; 20 mg/kg daily from day 15, read at day 40, day 15 untreated 14%, vehicle 20%): 7% | improvement in expression of NF-P within axons ([8]; 20 mg/kg daily, day 40 vs day 15): ≥ 50% | percentage area stained by anti-CD4, spinal cord ([9]; no treatment 0.86%, vehicle 0.74%, not significant): 0.61% | CD11b cells, percentage of white matter ([9]; no treatment 6.64%, vehicle 5.83%, p=0.05 vs vehicle): 3.94%
